Values quoted from earlier work, collected in US10597315B2, “Method of disinfection of drinking water using ozone and silver cations” (KAUNO TECHNOLOGIJOS UNIVERSITETAS, priority 2015, dated 2020).

Key:
[1] = World Health Organization

[Ag+] [silver]
Silver in drinking water tolerable without any risk to health [1]: up to 0.1 mg/kg | Ingested silver absorbed in the intestine: 10% | Ingested silver excreted from the body via the faeces: 90%
